The assay has as its system HCV replicon cells. The experiment in a line: Cell-based HCV replicon assay (replicon RNA level by real time PCR, Taqman). The note with it: Hepatitis C virus, 72 h, harvested on day 3, EC90 = concentration necessary to achieve ΔCT=3.2 over the baseline, read-out: EC90 Range. The protocol: Assays Cell-Based HCV Replicon Assay
To measure cell-based anti-HCV activity of the compounds of the present invention, replicon cells were seeded at 5000 cells/well in 96-well collagen I-coated Nunc plates in the presence of the compound of the invention. […] The final concentration of DMSO was 0.5%, fetal bovine serum was 10%, in the assay media. Cells were harvested on day 3 by the addition of 1× cell lysis buffer (Ambion cat #8721). The replicon RNA level was measured using real time PCR (Taqman assay). The amplicon was located in 5B. […] GAPDH RNA was used as endogenous control and was amplified in the same reaction as NS5B (multiplex PCR) using primers and VIC-labeled probe recommended by the manufacturer (PE Applied Biosystem). The real-time RT-PCR reactions were run on ABI PRISM 7900HT Sequence Detection System using the following program: 48° C. for 30 min, 95° C. for 10 min, 40 cycles of 95° C. for 15 sec, 60° C. for 1 min. The ACT values (CT5B-CTGAPDH) were plotted against the concentration of test compound and fitted to the sigmoid dose-response model using GraphPad PRISM software. EC50 was defined as the concentration of inhibitor necessary to achieve ΔCT=1 over the projected baseline; EC90 the concentration necessary to achieve ΔCT=3.2 over the baseline. Alternatively, to quantitate the absolute amount of replicon RNA, a standard curve was established by including serially diluted T7 transcripts of replicon RNA in the Taqman assay. All Taqman reagents were from PE Applied Biosystems. Such an assay procedure was described in detail in e.g. Malcolm et al., Antimicrobial Agents and Chemotherapy 50: 1013-1020 (2006).
Take `CCOc1ccc(C#Cc2c(C)nc(N)nc2N[C@@H]2C[C@H](CO)[C@@H](O)[C@H]2O)cn1` [Compound 1]: the EC90 is no more than 500 nM.

As for `CCOc1ccc(C#Cc2c(Cl)nc(N)nc2N[C@@H]2C[C@H](CO)[C@@H](O)[C@H]2O)c(C)n1` [Compound 2], the EC90 is no more than 500 nM.

On to `COc1ccc(C#Cc2c(Cl)nc(N)nc2N[C@@H]2C[C@H](CO)[C@@H](O)[C@H]2O)c(C)n1` [Compound 3], for which the EC90 was no more than 500 nM.

As for `Cc1ccc(C#Cc2c(Cl)nc(N)nc2N[C@@H]2C[C@H](CO)[C@@H](O)[C@H]2O)cn1` [Compound 5], the EC90 lay in the range of 500 to 5000 nM.

Take `Cc1ccsc1C#Cc1c(Cl)nc(N)nc1N[C@@H]1C[C@H](CO)[C@@H](O)[C@H]1O` [Compound 7]: the EC90 lay in the range of 500 to 5000 nM.

Turning to `Nc1nc(Cl)c(C#Cc2ccc(F)nc2)c(N[C@@H]2C[C@H](CO)[C@@H](O)[C@H]2O)n1` [Compound 8], the EC90 was 500 to 5000 nM.

As for `Nc1nc(Cl)c(C#Cc2ccc(Cl)nc2)c(N[C@@H]2C[C@H](CO)[C@@H](O)[C@H]2O)n1` [Compound 9], the EC90 was greater than 5000 nM.

For `Nc1nc(Cl)c(C#Cc2cccnc2Cl)c(N[C@@H]2C[C@H](CO)[C@@H](O)[C@H]2O)n1` [Compound 10], the EC90 lay in the range of 500 to 5000 nM.

With `Nc1nc(Cl)c(C#Cc2ccoc2)c(N[C@@H]2C[C@H](CO)[C@@H](O)[C@H]2O)n1` [Compound 11], the EC90 lay within 500 to 5000 nM.

Consider `COc1ncccc1C#Cc1c(Cl)nc(N)nc1N[C@@H]1C[C@H](CO)[C@@H](O)[C@H]1O` [Compound 12], for which the EC90 was in the range of 500 to 5000 nM.

Regarding `Nc1nc(Cl)c(C#Cc2ncc[nH]2)c(N[C@@H]2C[C@H](CO)[C@@H](O)[C@H]2O)n1` [Compound 13], the EC90 was 500 to 5000 nM.

For `CC(C)Oc1ncccc1C#Cc1c(Cl)nc(N)nc1N[C@@H]1C[C@H](CO)[C@@H](O)[C@H]1O` [Compound 14], the EC90 was 500 to 5000 nM.

Take `Cc1ccc(C#Cc2c(Cl)nc(N)nc2N[C@@H]2C[C@H](CO)[C@@H](O)[C@H]2O)c(C)n1` [Compound 16]: the EC90 was no more than 500 nM.

Consider `CCc1nc(C)ccc1C#Cc1c(Cl)nc(N)nc1N[C@@H]1C[C@H](CO)[C@@H](O)[C@H]1O` [Compound 17], for which the 90% effect concentration (EC90) lay in the range of 500 to 5000 nM.

Consider `Cc1nc(-c2cccs2)ccc1C#Cc1c(Cl)nc(N)nc1N[C@@H]1C[C@H](CO)[C@@H](O)[C@H]1O` [Compound 18], for which the EC90 is no more than 500 nM.

For `CNc1nc(Cl)c(C#Cc2ccc(OC)nc2)c(N[C@@H]2C[C@H](CO)[C@@H](O)[C@H]2O)n1` [Compound 19], the EC90 was no more than 500 nM.

For the molecule `COc1ccc(C#Cc2c(Cl)nc(N)nc2N[C@@H]2C[C@H](CO)[C@@H](O)[C@H]2O)cn1` [Compound 20, (1R,2S,3R,5R)-3-[[2-Amino-6-chloro-5-[2-(2-methoxypyridin-5-yl)ethynyl]-4-pyrimidinyl]amino]-5-(hydroxymethyl)-1,2-cyclopentanediol], the EC90 was no more than 500 nM.

Turning to `CCOc1ccc(C#Cc2c(Cl)nc(N)nc2N[C@@H]2C[C@H](CO)[C@@H](O)[C@H]2O)cn1` [Compound 21], the EC90 is no more than 500 nM.

`COc1ccc(C#Cc2c(Cl)nc(N)nc2N[C@@H]2C[C@H](CO)[C@@H](O)[C@H]2O)c(OC)n1` [Compound 22]: the EC90 is no more than 500 nM.

Turning to `CCOc1ccc(C#Cc2c(Cl)nc(N(C)C)nc2N[C@@H]2C[C@H](CO)[C@@H](O)[C@H]2O)cn1` [Compound 23], the EC90 was greater than 5000 nM.

Consider `COc1ccc(C#Cc2c(Cl)nc(N(C)C)nc2N[C@@H]2C[C@H](CO)[C@@H](O)[C@H]2O)cn1` [Compound 24], for which the EC90 was greater than 5000 nM.

On to `Nc1nc(Cl)c(C#Cc2ccc(Cl)cc2)c(N[C@@H]2C[C@H](CO)[C@@H](O)[C@H]2O)n1` [Compound 27], for which the 90% effect concentration (EC90) was in the range of 500 to 5000 nM.

As for `COc1ccc(C#Cc2c(Cl)nc(N)nc2N[C@@H]2C[C@H](CO)[C@@H](O)[C@H]2O)c(C)c1` [Compound 29], the EC90 lay in the range of 500 to 5000 nM.

As to `Cn1cncc1C#Cc1c(Cl)nc(N)nc1N[C@@H]1C[C@H](CO)[C@@H](O)[C@H]1O` [Compound 30], the EC90 was greater than 5000 nM.

In the case of `Nc1nc(Cl)c(C#Cc2ccc(C3CCCCN3)s2)c(N[C@@H]2C[C@H](CO)[C@@H](O)[C@H]2O)n1` (stereo partly drawn) [Compound 31], the EC90 was no more than 500 nM.

Consider `COC(=O)c1nc(N)sc1C#Cc1c(Cl)nc(N)nc1N[C@@H]1C[C@H](CO)[C@@H](O)[C@H]1O` [Compound 32], for which the EC90 is no more than 500 nM.

Take `Nc1nc(Cl)c(C#Cc2ccc(-c3ccccn3)s2)c(N[C@@H]2C[C@H](CO)[C@@H](O)[C@H]2O)n1` [Compound 34]: the EC90 is no more than 500 nM.

Turning to `Cc1nc(-c2ccccc2)c(C#Cc2c(Cl)nc(N)nc2N[C@@H]2C[C@H](CO)[C@@H](O)[C@H]2O)s1` [Compound 35], the EC90 is no more than 500 nM.

With `Nc1nc(Cl)c(C#Cc2cncs2)c(N[C@@H]2C[C@H](CO)[C@@H](O)[C@H]2O)n1` [Compound 37], the EC90 lay in the range of 500 to 5000 nM.

On to `Cc1nc(-c2ccc(C#Cc3c(Cl)nc(N)nc3N[C@@H]3C[C@H](CO)[C@@H](O)[C@H]3O)s2)cs1` [Compound 39], for which the EC90 lay in the range of 500 to 5000 nM.

Turning to `Nc1nc(Cl)c(C#Cc2ccc(C(=O)C(F)(F)F)s2)c(N[C@@H]2C[C@H](CO)[C@@H](O)[C@H]2O)n1` [Compound 40], the concentration for an effect of 90% (EC90) was in the range of 500 to 5000 nM.

As for `Nc1nc(Cl)c(C#Cc2ccc(-c3ccno3)s2)c(N[C@@H]2C[C@H](CO)[C@@H](O)[C@H]2O)n1` [Compound 43], the EC90 is 500 to 5000 nM.

As to `Nc1nc(Cl)c(C#Cc2ccc(-c3ccccc3)cc2)c(N[C@@H]2C[C@H](CO)[C@@H](O)[C@H]2O)n1` [Compound 44], the EC90 is 500 to 5000 nM.

Take `Nc1nc(Cl)c(C#Cc2cncnc2)c(N[C@@H]2C[C@H](CO)[C@@H](O)[C@H]2O)n1` [Compound 45]: the EC90 fell in the range of 500 to 5000 nM.

For `Cc1csc(C#Cc2c(Cl)nc(N)nc2N[C@@H]2C[C@H](CO)[C@@H](O)[C@H]2O)n1` [Compound 46], the EC90 was greater than 5000 nM.

On to `Nc1nc(Cl)c(C#Cc2ncc(CO)s2)c(N[C@@H]2C[C@H](CO)[C@@H](O)[C@H]2O)n1` [Compound 47], for which the EC90 is greater than 5000 nM.

As for `CN(C)c1nc(Cl)c(C#Cc2cccs2)c(N[C@@H]2C[C@H](CO)[C@@H](O)[C@H]2O)n1` [Compound 48], the EC90 is greater than 5000 nM.

Regarding `CNc1nc(Cl)c(C#Cc2ccccc2C(=O)OC(C)C)c(N[C@@H]2C[C@H](CO)[C@@H](O)[C@H]2O)n1` [Compound 50], the 90% effect concentration (EC90) fell in the range of 500 to 5000 nM.

With `CCNC(=O)c1ncccc1C#Cc1c(Cl)nc(N)nc1N[C@@H]1C[C@H](CO)[C@@H](O)[C@H]1O` [Compound 56], the EC90 lay within 500 to 5000 nM.

Turning to `CNC(=O)c1ncccc1C#Cc1c(Cl)nc(N)nc1N[C@@H]1C[C@H](CO)[C@@H](O)[C@H]1O` [Compound 57], the EC90 was in the range of 500 to 5000 nM.

For `Nc1nc(Cl)c(C#Cc2ccccc2Cl)c(N[C@@H]2C[C@H](CO)[C@@H](O)[C@H]2O)n1` [Compound 60], the EC90 lay in the range of 500 to 5000 nM.

As to `COC[C@H]1C[C@@H](Nc2nc(N)nc(Cl)c2C#Cc2ccsc2)[C@H](O)[C@@H]1O` [Compound 61], the EC90 lay in the range of 500 to 5000 nM.

On to `COC(=O)c1ncccc1C#Cc1c(Cl)nc(N(C)C)nc1N[C@@H]1C[C@H](CO)[C@@H](O)[C@H]1O` [Compound 62], for which the EC90 is 500 to 5000 nM.

Take `Cc1nc(-c2nccs2)ccc1C#Cc1c(Cl)nc(N)nc1N[C@@H]1C[C@H](CO)[C@@H](O)[C@H]1O` [Compound 63]: the EC90 is no more than 500 nM.

For `CSc1ccc(C#Cc2c(Cl)nc(N)nc2N[C@@H]2C[C@H](CO)[C@@H](O)[C@H]2O)c(C)n1` [Compound 64], the EC90 is no more than 500 nM.

As a reminder, the EC90 is the concentration needed for an effect of 90%.

Source of the values: patent publication US8541434B2, “Ethynyl-substituted pyridine and pyrimidine derivatives and their use in treating viral infections” (Merck Sharp & Dohme Corp., priority 2008, dated 2013).
